Laboratory results from patent US9738600B2, “ROR gamma (RORγ) modulators” (LEAD PHARMA CEL MODELS IP B.V., priority 2013, dated 2017).

Target: T1, RORγ (Homo sapiens, UniProt P51449)
T1 sequence (P51449 269-508 limits assumed): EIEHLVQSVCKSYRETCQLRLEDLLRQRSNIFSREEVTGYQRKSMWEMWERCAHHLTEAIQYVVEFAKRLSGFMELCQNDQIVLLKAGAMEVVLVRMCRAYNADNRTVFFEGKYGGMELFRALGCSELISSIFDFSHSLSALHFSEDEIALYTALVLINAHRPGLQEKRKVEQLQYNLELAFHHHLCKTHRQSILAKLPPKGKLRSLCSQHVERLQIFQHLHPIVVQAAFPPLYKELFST
Test: RORγ GAL4 reporter gene assay
Conditions: mean pIC50, inhibition of RORγ (GAL4-RORγ-LBD) in 293FT cells, luciferase readout, overnight incubation
Text: The RORγ ligand-binding domain (LBD) was fused to the yeast GAL4 DNA binding domain (DBD) and placed under the control of the human cytomegalovirus (CMV) immediate early promoter, using expression vector pFN26A (Promega) and standard recombinant DNA cloning methods.
To monitor the inhibitory effect of compounds on RORγ, a transcriptional reporter construct was used. The pGL4.35 vector (Promega) contains nine copies of the GAL4 Upstream Activator Sequence (UAS). This sequence drives the transcription of the luciferase reporter gene luc2P in response to binding of a fusion protein containing the GAL4 DNA binding domain, as for example expressed by the GAL4-RORγ-LBD and GAL4-VP16 expression vectors described above.
The day after transfection, cells were plated into 96 well plates, test compound was added and the plates were incubated overnight. Subsequently, the firefly luciferase activity was quantified using luciferase detection reagent and luminescence readout.
1500 μL of this reagent mixture was added to 5 μg of GAL4 fusion protein expression vector and 5 μg of the transcriptional reporter construct, and incubated at RT for 20 minutes.
Subsequently, the cells were washed with Phosphate Buffered Saline (PBS) (Lonza), after which the PBS was removed. To dissociate the cells, 1 ml of TrypLE Express (Invitrogen) was added to the flask, followed by incubation at RT until the cells visually started to detach. Cells were collected in 5 mL of assay medium (DMEM culture medium (Lonza), 10% dialyzed FBS (Invitrogen) and Pen/Strep (Lonza)) to achieve a single cell suspension. 10×10^6 cells were spun down and re-suspended in 10 mL of assay medium. Subsequently, the cell suspension was added to the transfection mix tube, and then transferred as a whole to a T75 flask (Greiner), followed by overnight (16-24 hours) incubation at 37° C. and 5% CO2.
For compound screening, the cells were harvested (as described above) and counted. […] 80 μL of cell suspension (60,000 cells) was plated per well into a white, flat bottom, tissue culture treated, 96 well screening plates (Greiner).
Test compounds were diluted, starting from a 10 mM dimethylsulfoxide (DMSO) stock solution, to serial dilutions in DMSO at 500× the final test concentration. Subsequently, these solutions were diluted to 5× the final test concentration in two 10-fold-dilution steps in assay medium. The final DMSO concentration of the 5× test compound solution was 1%. 20 μL of the 5× test compound solution was added to each test well of the 96 well plate previously plated with 80 μl cell suspension, resulting in the final test concentration with 0.2% DMSO.
The plates were incubated overnight (16-24 hours) at 37° C. and 5% CO2.
For the luciferase readout, the luciferase reagent (Britelite Plus, Perkin Elmer) was brought to RT. […] The luciferase luminescence signal was measured using a Wallac Victor Microplate Reader (Perkin Elmer).
The half maximum inhibitory concentration (IC50) values for the test compounds were calculated from the luciferase signal using GraphPad Prism software (GraphPad Software).

SMILES | IC50
CC(C(=O)Nc1ccc(C(O)(C(F)(F)F)C(F)(F)F)cc1)c1ccc(S(=O)(=O)CC2CC2)cc1 (stereo not drawn) [Example 109, 2-(4-((cyclopropylmethyl)sulfonyl)phenyl)-N-(4-(1,1,1,3,3,3-hexafluoro-2-hydroxypropan-2-yl)phenyl)propanamide] | ≤ 0.1 µM
O=C(Cc1ccc(S(=O)(=O)CC2CC2)cc1)Nc1ccc(C(O)(C(F)(F)F)C(F)(F)F)c(Cl)c1 [Example 62, N-(3-chloro-4-(1,1,1,3,3,3-hexafluoro-2-hydroxypropan-2-yl)phenyl)-2-(4-((cyclopropylmethyl)sulfonyl)phenyl)acetamide] | ≤ 0.1 µM
O=C(Cc1cccc(S(=O)(=O)NC2CC2)c1)Nc1ccc(C(O)(C(F)(F)F)C(F)(F)F)cc1F [Example 40, 2-(3-(N-cyclopropylsulfamoyl)phenyl)-N-(2-fluoro-4-(1,1,1,3,3,3-hexafluoro-2-hydroxypropan-2-yl)phenyl)acetamide] | ≤ 1 µM
CCS(=O)(=O)c1ccc(C(C)C(=O)Nc2ccc(C(O)(C(F)(F)F)C(F)(F)F)cc2)cc1 (stereo not drawn) [Example 5, 2-(4-(ethylsulfonyl)phenyl)-N-(4-(1,1,1,3,3,3-hexafluoro-2-hydroxypropan-2-yl)phenyl)propanamide] | ≤ 1 µM
CCC(O)(c1ccc(NC(=O)Cc2ccc(S(=O)(=O)NC3CC3)cc2)cc1)C(F)(F)F (stereo not drawn) [Example 79, 2-(4-(N-cyclopropylsulfamoyl)phenyl)-N-(4-(1,1,1-trifluoro-2-hydroxybutan-2-yl)phenyl)acetamide] | ≤ 1 µM
CCCC(O)(c1ccc(NC(=O)Cc2ccc(S(=O)(=O)NC3CC3)cc2)cc1)C(F)(F)F (stereo not drawn) [Example 80, 2-(4-(N-cyclopropylsulfamoyl)phenyl)-N-(4-(1,1,1-trifluoro-2-hydroxypentan-2-yl)phenyl)acetamide] | ≤ 1 µM
CCCCC(O)(c1ccc(NC(=O)Cc2ccc(S(=O)(=O)CC)cc2)cc1)C(F)(F)F (stereo not drawn) [Example 72, 2-(4-(ethylsulfonyl)phenyl)-N-(4-(1,1,1-trifluoro-2-hydroxyhexan-2-yl)phenyl)acetamide] | ≤ 1 µM
CCS(=O)(=O)c1ccc(CC(=O)Nc2ccc(C(O)(C(F)(F)F)C(F)(F)F)cc2)cc1F [Example 42, 2-(4-(ethylsulfonyl)-3-fluorophenyl)-N-(4-(1,1,1,3,3,3-hexafluoro-2-hydroxypropan-2-yl)phenyl)acetamide] | ≤ 1 µM
CCCS(=O)(=O)c1ccc(CC(=O)Nc2ccc(C(O)(C(F)(F)F)C(F)(F)F)cc2)cc1 [Example 4, N-(4-(1,1,1,3,3,3-hexafluoro-2-hydroxypropan-2-yl)phenyl)-2-(4-(propylsulfonyl)phenyl)acetamide] | ≤ 1 µM
CCS(=O)(=O)c1ccc(CC(=O)Nc2ccc(C(O)(C(C)C)C(F)(F)F)cc2)cc1 (stereo not drawn) [Example 65, 2-(4-(ethylsulfonyl)phenyl)-N-(4-(1,1,1-trifluoro-2-hydroxy-3-methylbutan-2-yl)phenyl)acetamide] | ≤ 1 µM
O=C(Cc1ccc(S(=O)(=O)CC2CC2)cc1)Nc1ccc(C(O)(CC2CCCCC2)C(F)(F)F)cc1 (stereo not drawn) [Example 69, N-(4-(3-cyclohexyl-1,1,1-trifluoro-2-hydroxypropan-2-yl)phenyl)-2-(4-((cyclopropylmethyl)sulfonyl)phenyl)acetamide] | ≤ 0.1 µM
CCS(=O)(=O)c1ccc(CC(=O)Nc2ccc(C(O)(CC3CCCC3)C(F)(F)F)cc2)cc1 (stereo not drawn) [Example 86, N-(4-(3-cyclopentyl-1,1,1-trifluoro-2-hydroxypropan-2-yl)phenyl)-2-(4-(ethylsulfonyl)phenyl)acetamide] | ≤ 1 µM
O=C(Cc1ccc(S(=O)(=O)NC2CC2)cc1)Nc1ccc(C(O)(CC2CCCC2)C(F)(F)F)cc1 (stereo not drawn) [Example 99, N-(4-(3-cyclopentyl-1,1,1-trifluoro-2-hydroxypropan-2-yl)phenyl)-2-(4-(N-cyclopropylsulfamoyl)phenyl)acetamide] | ≤ 1 µM
CC(C)OC(c1ccc(NC(=O)Cc2ccc(S(=O)(=O)CC3CC3)cc2)cc1)(C(F)(F)F)C(F)(F)F [Example 51, 2-(4-((cyclopropylmethyl)sulfonyl)phenyl)-N-(4-(1,1,1,3,3,3-hexafluoro-2-isopropoxypropan-2-yl)phenyl)acetamide] | ≤ 0.1 µM
CCS(=O)(=O)c1ccc(CC(=O)Nc2ccc(C(O)(C(F)(F)F)C(F)(F)F)cn2)cc1 [Example 21, 2-(4-(ethylsulfonyl)phenyl)-N-(5-(1,1,1,3,3,3-hexafluoro-2-hydroxypropan-2-yl)pyridin-2-yl)acetamide] | ≤ 1 µM
CC(C)CCC(O)(c1ccc(NC(=O)Cc2ccc(S(=O)(=O)CC3CC3)cc2)cc1)C(F)(F)F (stereo not drawn) [Example 104, 2-(4-((cyclopropylmethyl)sulfonyl)phenyl)-N-(4-(1,1,1-trifluoro-2-hydroxy-5-methylhexan-2-yl)phenyl)acetamide] | ≤ 0.1 µM
O=C(Cc1cccc(S(=O)(=O)NC2CC2)c1)Nc1ccc(C(O)(C(F)(F)F)C(F)(F)F)c(F)c1 [Example 38, 2-(3-(N-cyclopropylsulfamoyl)phenyl)-N-(3-fluoro-4-(1,1,1,3,3,3-hexafluoro-2-hydroxypropan-2-yl)phenyl)acetamide] | ≤ 1 µM
CCS(=O)(=O)c1ccc(CC(=O)Nc2ccc(C(O)(C(F)(F)F)C(F)(F)F)c(F)c2C)cc1 [Example 15, 2-(4-(ethylsulfonyl)phenyl)-N-(3-fluoro-4-(1,1,1,3,3,3-hexafluoro-2-hydroxypropan-2-yl)-2-methylphenyl)acetamide] | ≤ 1 µM
CCS(=O)(=O)c1ccc(CC(=O)Nc2ccc(C(OCC(F)(F)F)(C(F)(F)F)C(F)(F)F)cc2)cc1 [Example 112, 2-(4-(ethylsulfonyl)phenyl)-N-(4-(1,1,1,3,3,3-hexafluoro-2-(2,2,2-trifluoroethoxy)propan-2-yl)phenyl)acetamide] | ≤ 1 µM
CCC(O)(c1ccc(NC(=O)Cc2ccc(S(=O)(=O)CC3CC3)cc2)cc1)C(F)(F)F (stereo not drawn) [Example 83, 2-(4-((cyclopropylmethyl)sulfonyl)phenyl)-N-(4-(1,1,1-trifluoro-2-hydroxybutan-2-yl)phenyl)acetamide] | ≤ 0.01 µM
Cc1c(NC(=O)Cc2ccc(S(=O)(=O)NC3CC3)cc2)ccc(C(O)(C(F)(F)F)C(F)(F)F)c1F [Example 26, 2-(4-(N-cyclopropylsulfamoyl)phenyl)-N-(3-fluoro-4-(1,1,1,3,3,3-hexafluoro-2-hydroxypropan-2-yl)-2-methylphenyl)acetamide] | ≤ 1 µM
O=C(Cc1ccc(S(=O)(=O)CC2CC2)cc1)Nc1ccc(C(O)(C2CC2)C2CC2)cc1 [Example 106, 2-(4-((cyclopropylmethyl)sulfonyl)phenyl)-N-(4-(dicyclopropyl(hydroxy)methyl)phenyl)acetamide] | ≤ 0.1 µM
O=C(Cc1ccc(S(=O)(=O)CC2CC2)cc1)Nc1ccc(C(OCC(F)(F)F)(C(F)(F)F)C(F)(F)F)cc1 [Example 113, 2-(4-((cyclopropylmethyl)sulfonyl)phenyl)-N-(4-(1,1,1,3,3,3-hexafluoro-2-(2,2,2-trifluoroethoxy)propan-2-yl)phenyl)acetamide] | ≤ 0.1 µM
O=C(Cc1ccc(S(=O)(=O)CC2CC2)cc1)Nc1ccc(C(O)(C(F)(F)F)C(F)(F)F)cc1F [Example 46, 2-(4-((cyclopropylmethyl)sulfonyl)phenyl)-N-(2-fluoro-4-(1,1,1,3,3,3-hexafluoro-2-hydroxypropan-2-yl)phenyl)acetamide] | ≤ 0.01 µM
